Experimental data taken from ChEMBL document CHEMBL3045569, “Synthesis of allyl esters of fatty acids and their ovicidal effect on Cydia pomonella (L.)” (2009).
Values after ≈ are worked out from the molar mass of the structure shown. Active and inactive are the calls of the source. No cut-off for these calls is given here.

Experiments:
[1] = test system: Cydia pomonella; assay: Ovicidal activity against <24 hr-old Cydia pomonella (codling moth) eggs assessed as corrected mortality at 1.75 mg/ml applied as 0.1 ul drop solution topically measured for 3 days; format: functional; settings: topical, 72 h
[2] = test system: Cydia pomonella; assay: Ovicidal activity against <24 hr-old Cydia pomonella (codling moth) eggs assessed as corrected mortality at 0.1 mg/ml applied as 0.1 ul drop solution topically measured for 3 days; format: functional; settings: topical, 72 h
[3] = test system: Cydia pomonella; assay: Ovicidal activity against <24 hr-old Cydia pomonella (codling moth) eggs assessed as corrected mortality at 2.5 mg/ml applied as 0.1 ul drop solution topically measured for 3 days; format: functional; settings: topical, 72 h
[4] = test system: Cydia pomonella; assay: Ovicidal activity against <24 hr-old Cydia pomonella (codling moth) eggs assessed as corrected mortality at 10 mg/ml applied as 0.1 ul drop solution topically measured for 3 days; format: functional; settings: topical, 72 h
[5] = test system: Cydia pomonella; assay: Ovicidal activity against <24 hr-old Cydia pomonella (codling moth) eggs assessed as mortality applied as 0.1 ul drop solution topically measured for 3 days; format: functional; settings: for LC50: Cydia pomonella, topical, 72 h
[6] = test system: Cydia pomonella; assay: Ovicidal activity against <24 hr-old Cydia pomonella (codling moth) eggs assessed as corrected mortality at 5 mg/ml applied as 0.1 ul drop solution topically measured for 3 days; format: functional; settings: topical, 72 h
[7] = test system: Cydia pomonella; assay: Ovicidal activity against <24 hr-old Cydia pomonella (codling moth) eggs assessed as mortality at the stage of red ring development at 10 mg/ml applied as 0.1 ul drop solution topically measured for 3 days (acetone Rvb = 4.4 +/-0.22%); format: functional; settings: topical, 72 h
[8] = test system: Cydia pomonella; assay: Ovicidal activity against <24 hr-old Cydia pomonella (codling moth) eggs assessed as mortality at the stage of white head development at 10 mg/ml applied as 0.1 ul drop solution topically measured for 3 days (acetone Rvb = 1.1 +/-0.44%); format: functional; settings: topical, 72 h
[9] = test system: Cydia pomonella; assay: Ovicidal activity against <24 hr-old Cydia pomonella (codling moth) eggs assessed as corrected mortality at 1 mg/ml applied as 0.1 ul drop solution topically measured for 3 days; format: functional; settings: topical, 72 h
[10] = test system: Cydia pomonella; assay: Ovicidal activity against <24 hr-old Cydia pomonella (codling moth) eggs assessed as mortality at the stage of black head development at 10 mg/ml applied as 0.1 ul drop solution topically measured for 3 days (acetone Rvb = 94.4 +/-0.1%); format: functional; settings: topical, 72 h
[11] = test system: Cydia pomonella; assay: Ovicidal activity against <24 hr-old Cydia pomonella (codling moth) eggs assessed as corrected mortality at 7.5 mg/ml applied as 0.1 ul drop solution topically measured for 3 days; format: functional; settings: topical, 72 h
[12] = test system: Cydia pomonella; assay: Ovicidal activity against <24 hr-old Cydia pomonella (codling moth) eggs assessed as corrected mortality at 0.5 mg/ml applied as 0.1 ul drop solution topically measured for 3 days; format: functional; settings: topical, 72 h
[13] = test system: Cydia pomonella; assay: Ovicidal activity against <24 hr-old Cydia pomonella (codling moth) eggs assessed as increase in duration of the development of eggs applied as 0.1 ul drop solution topically measured for 3 days; format: functional, organism-based

SMILES | mortality at 1750 µg/mL [1] | mortality at 100 µg/mL [2] | mortality at 2500 µg/mL [3] | mortality at 10000 µg/mL [4] | LC90 [5] | LC50 [5] | mortality at 5000 µg/mL [6] | mortality at 10000 µg/mL [7] | mortality at 10000 µg/mL [8] | mortality at 1000 µg/mL [9] | mortality at 10000 µg/mL [10] | mortality at 7500 µg/mL [11] | mortality at 500 µg/mL [12] | Activity [13]
C=CCOC(=O)CCC [ALLYL BUTANOATE] | 72% | 6% | 83.3% | 100% | 3200 µg/mL (≈ 25 mM) | 1060 µg/mL (≈ 8.27 mM) | 98.7% | 14.4% | 75.6% | 42.7% | 10% | 100% | 20.5% | Active
C=CCOC(=O)CCCCCCCCC [ALLYL DECANOATE] | 76.3% | 7.4% | 97.2% | 100% | 2260 µg/mL (≈ 10.6 mM) | 1400 µg/mL (≈ 6.59 mM) | 98.7% | 16.7% | 68.9% | 30.5% | 14.4% | 100% | 12.4% | Active
C=CCOC(=O)CCCCCCCCCCC [ALLYL DODECANOATE] | 71.7% | 0% | 95.9% | 100% | 2340 µg/mL (≈ 9.73 mM) | 1140 µg/mL (≈ 4.74 mM) | 96.5% | 12.2% | 68.9% | 36.4% | 18.9% | 98.8% | 10% | Active
C=CCOC(=O)CCCCC [ALLYL HEXANOATE] | 83.8% | 8.4% | 95.8% | 100% | 2130 µg/mL (≈ 13.6 mM) |  | 98.7% | 13.3% | 67.8% | 51.2% | 18.9% | 100% | 22.4% | Active
C=CCOC(=O)CCCCCCCCCCCCCCCCC [ALLYL OCTADECANOATE] | 32.1% | 0% | 41.6% | 100% | 7330 µg/mL (≈ 22.6 mM) | 2690 µg/mL (≈ 8.29 mM) | 82.2% | 13.3% | 43.3% | 17.3% | 43.3% | 87.2% | 11.9% | Active
C=CCOC(=O)CCCCCCC [ALLYL OCTANOATE] | 83.8% | 9.7% | 95.9% | 100% | 2180 µg/mL (≈ 11.8 mM) | 710 µg/mL (≈ 3.85 mM) | 97.7% | 13.3% | 80% | 59.2% | 6.7% | 98.8% | 29.9% | Active
C=CCOC(=O)CCCCCCCCCCCCC [ALLYL TETRADECANOATE] | 49.5% | 4.6% | 87.5% | 100% | 3240 µg/mL (≈ 12.1 mM) | 1410 µg/mL (≈ 5.25 mM) | 97.2% | 17.8% | 54.4% | 19.8% | 27.8% | 97.7% | 7.5% | Active
C=CCOC(=O)CCCCCCCCCCCCCCC [HEXADECANOIC ACID ALLYL ESTER] | 32.6% | 0% | 66.6% | 100% | 7970 µg/mL (≈ 26.9 mM) | 2460 µg/mL (≈ 8.3 mM) | 72.2% | 24.4% | 28.9% | 6% | 46.7% | 87.2% | 0% | Active
CCOC(=O)NCCOc1ccc(Oc2ccccc2)cc1 [PHENOXYCARB] |  |  |  |  |  |  |  |  |  |  |  |  | 100% | 
